# Like-named read-outs stand apart in the source and are kept apart here.
# Columns and labels:
# [1] = Compound cytotoxicity, XTT-based colorimetric assay; format: cell-based; conditions: human
# In short: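 Follows the antiviral assay procedure, but with uninfected MT2 cells. On day 4, cell viability is measured by XTT-based colorimetry, giving CC50 values.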
# [2] = system: recombinant NL4-3 virus (nef section replaced with Renilla luciferase gene) in MT-2 cells; assay: HIV cell culture assay (antiviral activity, luciferase readout); format: cell-based; conditions: Renilla, NL43, MT-2 cells infected for 4-5 days with recombinant NL4-3 Renilla luciferase virus
# In short: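 Reporter virus is produced in 293T cells and its titer set in MT-2 cells by luciferase activity. MT-2 cells are then infected in the presence of serially diluted compound for 4-5 days. Luciferase is quantified and EC50 fitted to the median effect equation.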
# [3] = uninfected MT2 cells, day 4, XTT, read-out: CC50
smiles,measurement,setting,value
"COCCN(CCOC)C(=O)Cn1nc(NS(C)(=O)=O)c2c(Cl)ccc(-n3c([C@H](Cc4cc(F)cc(F)c4)NC(=O)Cn4nc(C5CC5)c5c4C[C@@H]4C[C@H]54)nc4nc(C5CCC(F)(F)CC5)cc(C)c4c3=O)c21 (atropisomer, axis not shown; (P)) [Example 387, 2-[(6P)-4-chloro-7-{2-[(1S)-1-{2-[(2S,4S)-9-cyclopropyl-7,8-diazatricyclo[4.3.0.0^2,^4]nona-1(6),8-dien-7-yl]acetamido}-2-(3,5-difluorophenyl)ethyl]-7-(4,4-difluorocyclohexyl)-5-methyl-4-oxo-3H,4H-pyrido[2,3-d]pyrimidin-3-yl}-3-methanesulfonamido-1H-indazol-1-yl]-N,N-bis(2-methoxyethyl)acetamide]",CC50 at 4 days,[1]; [3],> 20000 pM
same,EC50,[2],39 pM
"Cc1cc(C2(F)CCC(F)(F)CC2)nc2nc([C@H](Cc3cc(F)cc(F)c3)NC(=O)Cn3nc(C(F)F)c4c3C(F)(F)[C@@H]3C[C@H]43)n(-c3ccc(Cl)c4c(NS(C)(=O)=O)nn(C[C@@H](C)N5C[C@H](F)C[C@H](F)C5)c34)c(=O)c12 (atropisomer, axis not shown; (P)) [Example 697, N-[(1S)-1-[(3P)-3-{4-chloro-1-[(2R)-2-[(3R,5S)-3,5-difluoropiperidin-1-yl]propyl]-3-methanesulfonamido-1H-indazol-7-yl}-5-methyl-4-oxo-7-(1,4,4-trifluorocyclohexyl)-3H,4H-pyrido[2,3-d]pyrimidin-2-yl]-2-(3,5-difluorophenyl)ethyl]-2-[(2S,4R)-9-(difluoromethyl)-5,5-difluoro-7,8-diazatricyclo[4.3.0.0^2,^4]nona-1(6),8-dien-7-yl]acetamide]",CC50 at 4 days,[1]; [3],> 20000 pM
same,EC50,[2],9 pM
"CC(C)[C@@H]1CN(CCn2nc(NS(C)(=O)=O)c3c(Cl)ccc(-n4c([C@H](Cc5cc(F)cc(F)c5)NC(=O)Cn5nc(C6CC6)c6c5C[C@@H]5C[C@H]65)nc5nc(C6CCC(F)(F)CC6)ccc5c4=O)c32)CCO1 (atropisomer, axis not shown; (P)) [Example 435, N-[(1S)-1-[(3P)-3-(4-chloro-3-methanesulfonamido-1-{2-[(2R)-2-(propan-2-yl)morpholin-4-yl]ethyl}-1H-indazol-7-yl)-7-(4,4-difluorocyclohexyl)-4-oxo-3H,4H-pyrido[2,3-d]pyrimidin-2-yl]-2-(3,5-difluorophenyl)ethyl]-2-[(2S,4S)-9-cyclopropyl-7,8-diazatricyclo[4.3.0.0^2,^4]nona-1(6),8-dien-7-yl]acetamide]",CC50 at 4 days,[1]; [3],> 20000 pM
same,EC50,[2],9 pM
"Cc1cc(C2(F)CCC(F)(F)CC2)nc2nc([C@H](Cc3cc(F)cc(F)c3)NC(=O)Cn3nc(C(F)F)c4c3C(F)(F)[C@@H]3C[C@H]43)n(-c3ccc(Cl)c4c(NS(C)(=O)=O)nn(CCN5CCO[C@@H](C(C)C)C5)c34)c(=O)c12 (atropisomer, axis not shown; (P)) [Example 574, N-[(1S)-1-[(3P)-3-(4-chloro-3-methanesulfonamido-1-{2-[(2S)-2-(propan-2-yl)morpholin-4-yl]ethyl}-1H-indazol-7-yl)-5-methyl-4-oxo-7-(1,4,4-trifluorocyclohexyl)-3H,4H-pyrido[2,3-d]pyrimidin-2-yl]-2-(3,5-difluorophenyl)ethyl]-2-[(2S,4R)-9-(difluoromethyl)-5,5-difluoro-7,8-diazatricyclo[4.3.0.0^2,^4]nona-1(6),8-dien-7-yl]acetamide]",CC50 at 4 days,[1]; [3],> 20000 pM
same,EC50,[2],19 pM
"COCCCn1nc(NS(C)(=O)=O)c2c(Cl)ccc(-n3c([C@H](Cc4cc(F)cc(F)c4)NC(=O)Cn4nc(C(F)F)c5c4C(F)(F)[C@@H]4C[C@H]54)nc4nc(C5CCC(F)(F)CC5)cc(NCCN5CCN(C(C)=O)CC5)c4c3=O)c21 (atropisomer, axis not shown; (P)) [Example 536, N-[(1S)-1-[(3P)-5-{[2-(4-acetylpiperazin-1-yl)ethyl]amino}-3-[4-chloro-3-methanesulfonamido-1-(3-methoxypropyl)-1H-indazol-7-yl]-7-(4,4-difluorocyclohexyl)-4-oxo-3H,4H-pyrido[2,3-d]pyrimidin-2-yl]-2-(3,5-difluorophenyl)ethyl]-2-[(2S,4R)-9-(difluoromethyl)-5,5-difluoro-7,8-diazatricyclo[4.3.0.0^2,^4]nona-1(6),8-dien-7-yl]acetamide]",CC50 at 4 days,[1]; [3],> 20000 pM
same,EC50,[2],25 pM
"Cc1cc(C2(F)CCC(F)(F)CC2)nc2nc([C@H](Cc3cc(F)cc(F)c3)NC(=O)Cn3nc(C(F)F)c4c3C(F)(F)[C@@H]3C[C@H]43)n(-c3ccc(Cl)c4c(NS(C)(=O)=O)nn(CCN5CC(C)(C)OC(C)(C)C5)c34)c(=O)c12 (atropisomer, axis not shown; (P)) [Example 501, N-[(1S)-1-[(3P)-3-{4-chloro-3-methanesulfonamido-1-[2-(2,2,6,6-tetramethylmorpholin-4-yl)ethyl]-1H-indazol-7-yl}-5-methyl-4-oxo-7-(1,4,4-trifluorocyclohexyl)-3H,4H-pyrido[2,3-d]pyrimidin-2-yl]-2-(3,5-difluorophenyl)ethyl]-2-[(2S,4R)-9-(difluoromethyl)-5,5-difluoro-7,8-diazatricyclo[4.3.0.0^2,^4]nona-1(6),8-dien-7-yl]acetamide]",CC50 at 4 days,[1]; [3],> 20000 pM
same,EC50,[2],16 pM
"COCCCn1nc(NS(C)(=O)=O)c2c(Cl)ccc(-n3c([C@H](Cc4cc(F)cc(F)c4)NC(=O)Cn4nc(C(F)F)c5c4C(F)(F)[C@@H]4C[C@H]54)nc4nc(C5CCC(F)(F)CC5)cc(NCCN5CCOC(C)(C)C5)c4c3=O)c21 (atropisomer, axis not shown; (P)) [Example 476, N-[(1S)-1-[(3P)-3-[4-chloro-3-methanesulfonamido-1-(3-methoxypropyl)-1H-indazol-7-yl]-7-(4,4-difluorocyclohexyl)-5-{[2-(2,2-dimethylmorpholin-4-yl)ethyl]amino}-4-oxo-3H,4H-pyrido[2,3-d]pyrimidin-2-yl]-2-(3,5-difluorophenyl)ethyl]-2-[(2S,4R)-9-(difluoromethyl)-5,5-difluoro-7,8-diazatricyclo[4.3.0.0^2,^4]nona-1(6),8-dien-7-yl]acetamide]",CC50 at 4 days,[1]; [3],> 20000 pM
same,EC50,[2],5 pM
"COCCNc1cc(C2CCC(F)(F)CC2)nc2nc([C@H](Cc3cc(F)cc(F)c3)NC(=O)Cn3nc(C(F)F)c4c3C(F)(F)[C@@H]3C[C@H]43)n(-c3ccc(Cl)c4c(NS(C)(=O)=O)nn(CCN5C[C@H]6C[C@@H](C5)O6)c34)c(=O)c12 (atropisomer, axis not shown; (P)) [Example 419, N-[(1S)-1-[(3P)-3-(4-chloro-3-methanesulfonamido-1-{2-[(1R,5S)-6-oxa-3-azabicyclo[3.1.1]heptan-3-yl]ethyl}-1H-indazol-7-yl)-7-(4,4-difluorocyclohexyl)-5-[(2-methoxyethyl)amino]-4-oxo-3H,4H-pyrido[2,3-d]pyrimidin-2-yl]-2-(3,5-difluorophenyl)ethyl]-2-[(2S,4R)-9-(difluoromethyl)-5,5-difluoro-7,8-diazatricyclo[4.3.0.0^2,^4]nona-1(6),8-dien-7-yl]acetamide]",CC50 at 4 days,[1],> 20000 pM
same,EC50,[2],11 pM
"Cc1cc(C2CCC(F)(F)CC2)nc2nc([C@H](Cc3cc(F)cc(F)c3)NC(=O)Cn3nc(C4CC4)c4c3C[C@@H]3C[C@H]43)n(-c3ccc(Cl)c4c(NS(C)(=O)=O)nn(CCN5CCO[C@H](C(C)C)C5)c34)c(=O)c12 (atropisomer, axis not shown; (P)) [Example 457, N-[(1S)-1-[(3P)-3-(4-chloro-3-methanesulfonamido-1-{2-[(2R)-2-(propan-2-yl)morpholin-4-yl]ethyl}-1H-indazol-7-yl)-7-(4,4-difluorocyclohexyl)-5-methyl-4-oxo-3H,4H-pyrido[2,3-d]pyrimidin-2-yl]-2-(3,5-difluorophenyl)ethyl]-2-[(2S,4S)-9-cyclopropyl-7,8-diazatricyclo[4.3.0.0^2,^4]nona-1(6),8-dien-7-yl]acetamide]",CC50 at 4 days,[1]; [3],> 20000 pM
same,EC50,[2],7 pM
"Cc1cc(C2CCC(F)(F)CC2)nc2nc([C@H](Cc3cc(F)cc(F)c3)NC(=O)Cn3nc(C4CC4)c4c3C[C@@H]3C[C@H]43)n(-c3ccc(Cl)c4c(NS(C)(=O)=O)nn(CCN5[C@@H]6CC[C@H]5CC(F)(F)C6)c34)c(=O)c12 (atropisomer, axis not shown; (P)) [Example 245]",CC50 at 4 days,[1],> 50000 pM
same,EC50,[2],19 pM
"CC(=O)c1cc(C2CCC(F)(F)CC2)nc2nc([C@H](Cc3cc(F)cc(F)c3)NC(=O)Cn3nc(C(F)F)c4c3C(F)(F)[C@@H]3C[C@H]43)n(-c3ccc(Cl)c4c(NS(C)(=O)=O)nn(CCN5CCC(F)(F)CC5)c34)c(=O)c12 (atropisomer, axis not shown; (P)) [Example 746, N-[(1S)-1-[(3P)-5-acetyl-3-{4-chloro-1-[2-(4,4-difluoropiperidin-1-yl)ethyl]-3-methanesulfonamido-1H-indazol-7-yl}-7-(4,4-difluorocyclohexyl)-4-oxo-3H,4H-pyrido[2,3-d]pyrimidin-2-yl]-2-(3,5-difluorophenyl)ethyl]-2-[(2S,4R)-9-(difluoromethyl)-5,5-difluoro-7,8-diazatricyclo[4.3.0.0^2,4]nona-1(6),8-dien-7-yl]acetamide]",CC50 at 4 days,[1]; [3],> 20000 pM
same,EC50,[2],8 pM
"CS(=O)(=O)Nc1nn(CCN2CC[C@@H](F)C2)c2c(-n3c([C@H](Cc4cc(F)cc(F)c4)NC(=O)Cn4nc(C(F)F)c5c4C(F)(F)[C@@H]4C[C@H]54)nc4nc(C5CCC(F)(F)CC5)ccc4c3=O)ccc(Cl)c12 (atropisomer, axis not shown; (P)) [Example 208, N-[(1S)-1-[(3P)-3-(4-chloro-1-{2-[(3R)-3-fluoropyrrolidin-1-yl]ethyl}-3-methanesulfonamido-1H-indazol-7-yl)-7-(4,4-difluorocyclohexyl)-4-oxo-3H,4H-pyrido[2,3-d]pyrimidin-2-yl]-2-(3,5-difluorophenyl)ethyl]-2-[(2S,4R)-9-(difluoromethyl)-5,5-difluoro-7,8-diazatricyclo[4.3.0.0^2,^4]nona-1(6),8-dien-7-yl]acetamide]",CC50 at 4 days,[1]; [3],> 50000 pM
same,EC50,[2],9 pM
